Experiments:
[1] = target: recombinant human ACC1 (rhACC1) (Homo sapiens (Human), UniProt Q13085); assay: Transcreener ADP detection FP assay, direct inhibition of rhACC1; type: biochemical; settings: Geomean IC50, n ≥ 2 unless * then n = 1; 50 μM ATP, 30 μM acetyl-CoA
Method: The direct inhibition of ACC1 for the compounds of the present invention was determined using preparations of recombinant human ACC1 (rhACC1) (SEQ ID NO. 1)
Two liters of SF9 cells, infected with recombinant baculovirus containing full length human ACC1 cDNA, were suspended in ice-cold lysis buffer (25 mM Tris, pH 7.5; 150 mM NaCl; 10% glycerol; 5 mM imidazole (EMD Bioscience; Gibbstown, NJ); 2 mM TCEP (BioVectra; Charlottetown, Canada); Benzonase nuclease (10000 U/100 g cell paste; Novagen; Madison, WI); EDTA-free protease inhibitor cocktail (1 tab/50 ml; Roche Diagnostics; Mannheim, Germany). Cells were lysed by 3 cycles of freeze-thaw and centrifuged at 40,000×g for 40 minutes (4° C.). Supernatant was directly loaded onto a HisTrap FF crude column (GE Healthcare; Piscataway, NJ) and eluted with an imidazole gradient up to 0.5 M over 20 column volumes (CV). ACC1-containing fractions were pooled and diluted 1:5 with 25 mM Tris, pH 7.5, 2 mM TCEP, 10% glycerol and direct loaded onto a CaptoQ (GE Healthcare) column and eluted with an NaCl gradient up to 1 M over 20 CV's. Phosphate groups were removed from purified ACC1 by incubation with lambda phosphatase (100 U/10 μM target protein; New England Biolabs; Beverly, MA) for 14 hours at 4° C.; okadaic acid was added (1 μM final concentration; Roche Diagnostics) to inhibit the phosphatase. Purified ACC1 was exchanged into 25 mM Tris, pH 7.5, 2 mM TCEP, 10% glycerol, 0.5 M NaCl by 6 hour dialysis at 4° C. Aliquots were prepared and frozen at −80° C.
Measurement of rhACC1 Inhibition rhACC1 was assayed in a Corning #3820 (Corning, Tewksbury, MA) 384-well plate using the Transcreener ADP detection FP assay kit (Bellbrook Labs, Madison, Wisconsin) using the manufacturer's recommended conditions for a 50 μM ATP reaction. The final conditions for the assay were 50 mM HEPES, pH 7.2, 10 mM MgCl2, 7.5 mM tripotassium citrate, 2 mM DTT, 0.1 mg/mL BSA, 30 μM acetyl-CoA, 50 μM ATP, and 10 mM KHCO3. Typically, a […] was run for 60 min at room temp, and 10 μl of Transcreener stop and detect buffer was added and the combination incubated at room temp for an overnight (18 hours). The data was acquired on an Envision Fluorescence reader (PerkinElmer) using a 620 excitation Cy5 FP general dual mirror, 620 excitation Cy5 FP filter, 688 emission (S) and a 688 (P) emission filter.

SZ95 sebocytes = assay: Radiometric measurement of de novo lipogenesis in cultured human sebocytes; type: cell-based; settings: Geomean IC50, n>2 unless * then n=1, 14C acetate incorporation into lipids (DNL)
Method: SZ95 sebocytes were grown in Human Sebocyte Growth Medium (HSGM) containing Sebomed® basal medium (Sigma-Aldrich, F8205) supplemented with 10% heat-inactivated fetal bovine serum (Gibco, 10100-147), 1% penicillin/streptomycin (Gibco, 15070-063), 1 mM calcium chloride (Fisher, BP9742-10X5) and 5 ng/mL recombinant human epidermal growth factor (Gibco, PHG0311). At 90% confluence, cells were washed with PBS and then detached with 0.05% Trypsin-EDTA (Gibco, 25300054). Prior to starting the assay, cells were centrifuged and resuspended in HSGM containing 5% charcoal-stripped serum (Life Technologies, 12676-029) instead of 10% heat-inactivated fetal bovine serum. Cells were added to 24-well plates at a density of 0.25×10^6 cells/well and incubated overnight at 37° C. to allow the cells to adhere to the culture plate. Cells were then treated with a dose response of compound (30, 1, 0.03, 0.006, 0.0009, 0.0002, and 0.00003 μM) with each concentration tested in duplicate. Briefly, compounds were dissolved in DMSO stocks and diluted 1:1000 into HSGM with charcoal-stripped media. The vehicle control wells were treated with 0.1% DMSO. After a 1-hour preincubation with compound or vehicle at 37° C., 0.25 μCi ^14C sodium acetate (American Radiolabeled Chemicals: ARC, 0173A) was added to each well. Plates were incubated for an additional two hours at 37° C. At the end of the incubation period, cells were removed from incubator, placed on ice, and then washed twice with ice-cold PBS to remove free ^14C-sodium acetate. Plates were sealed and stored at −20° C. until analysis. To induce lysis, 125 μL of mammalian protein extraction reagent (MPER; Fisher, 78501) was added to each well. Plates were shaken for 1 hour at room temperature and lysates transferred to individual 2 mL polypropylene tubes. Wells were then washed with 175 μL PBS, which was added to lysates. A chloroform:methanol solution (1:1 v/v, 450 μL) was added to each tube. All tubes were vortexed for 10 seconds and centrifuged at 14,000×g for 5 minutes at room temperature to separate the aqueous and organic phases. A 25 μL aliquot was removed from the bottom organic layer of each sample and added to 6 mL Optiphase Supermix scintillation fluid (PerkinElmer, 1200-439). Counts of ^14C were assessed by scintillation counting. DNL (counts of ^14C incorporated into lipids) was expressed as a percentage for compound treated cells relative to the vehicle control. IC50 values were determined using a non-linear regression (four parameter with variable slope) in GraphPad Prism.

[2] = Metabolite profile in liver microsomes, hepatocytes, recombinant human P450 and UGT enzymes, and animal plasma; type: in vitro ADME, mouse, rat, rabbit, dog, monkey; settings: recombinant human cytochrome P450 and UGT enzymes, plasma from animals
Method: The metabolite profile of compound of Example 14 was evaluated in liver microsomes and hepatocytes (mouse, rat, rabbit, dog, monkey, and human), recombinant human cytochrome P450 enzymes, recombinant human UGT enzymes, and plasma from animals (mouse, rat, and dog).

Work on `COc1cc(C(=O)N2CCC3(CC2)CC(=O)c2nc(C(C)(C)C)sc2C3)cc2c(C)nn(C)c12` [Example 13, 2-(tert-butyl)-1′-(7-methoxy-1,3-dimethyl-1H-indazole-5-carbonyl)-5H-spiro[benzo[d]thiazole-6,4′-piperidin]-4(7H)-one] yielded an IC50 [1] of 5.3 nM and an IC50 (SZ95 sebocytes) of 13.5 nM.
For `CCOc1cc(C(=O)N2CCC3(CC2)CC(=O)c2nc(C(C)(C)C)sc2C3)cc2c(C)nn(C)c12` [Example 14, 2-(tert-butyl)-1′-(7-ethoxy-1,3-dimethyl-1H-indazole-5-carbonyl)-5H-spiro[benzo[d]thiazole-6,4′-piperidin]-4(7H)-one], the IC50 [1] was 2.2 nM, the IC50 (SZ95 sebocytes) was 5.9 nM and the metabolite profile [2] was “oxidation and glucuronidation”.
Work on `CNc1cnc2c(C)cc(C(=O)N3CCC4(CC3)CC(=O)c3nc(C(C)(C)C)sc3C4)cc2c1` [Example 15, 2-(tert-butyl)-1′-(8-methyl-3-(methylamino)quinoline-6-carbonyl)-5H-spiro[benzo[d]thiazole-6,4′-piperidin]-4(7H)-one] yielded an IC50 [1] of 3.4 nM and an IC50 (SZ95 sebocytes) of 12.9 nM.
With `Cc1cc(C(=O)N2CCC3(CC2)CC(=O)c2nc(C(C)(C)C)sc2C3)cc2ccccc12` [Example 16, 2-(tert-butyl)-1′-(4-methyl-2-naphthoyl)-5H-spiro[benzo[d]thiazole-6,4′-piperidin]-4(7H)-one] the IC50 [1] was 7.3 nM and the IC50 (SZ95 sebocytes) was 18.1 nM.
Compound `Cc1cc(C(=O)N2CCC3(CC2)CC(=O)c2nc(C(C)(C)C)sc2C3)cc2cc[nH]c12` [Example 17, 2-(tert-butyl)-1′-(7-methyl-1H-indole-5-carbonyl)-5H-spiro[benzo[d]thiazole-6,4′-piperidin]-4(7H)-one] has an IC50 [1] of 9.6 nM and an IC50 (SZ95 sebocytes) of 15.6 nM.
`COc1cnc2c(C)cc(C(=O)N3CCC4(CC3)CC(=O)c3nc(C(C)(C)C)sc3C4)cc2c1` [Example 19, 2-(tert-butyl)-1′-(3-methoxy-8-methylquinoline-6-carbonyl)-5H-spiro[benzo[d]thiazole-6,4′-piperidin]-4(7H)-one] showed an IC50 [1] of 9.9 nM and an IC50 (SZ95 sebocytes) of 21.1 nM.
For `COc1cc(C(=O)N2CCC3(CC2)CC(=O)c2nc(C(C)(C)C)sc2C3)c2[nH]ncc2c1C` [Example 33, 2-(tert-butyl)-1′-(5-methoxy-4-methyl-1H-indazole-7-carbonyl)-5H-spiro[benzo[d]thiazole-6,4′-piperidin]-4(7H)-one], the IC50 [1] was 5.1 nM and the IC50 (SZ95 sebocytes) was 38.1 nM.
With `CNc1ccc2c(C)cc(C(=O)N3CCC4(CC3)CC(=O)c3nc(C(C)(C)C)sc3C4)cc2n1` [Example 38, 2-(tert-butyl)-1′-(5-methyl-2-(methylamino)quinoline-7-carbonyl)-5H-spiro[benzo[d]thiazole-6,4′-piperidin]-4(7H)-one] the IC50 [1] was 4.9 nM and the IC50 (SZ95 sebocytes) was 14.2 nM.
Compound `Cc1cc(C(=O)N2CCC3(CC2)CC(=O)c2nc(C(C)(C)C)sc2C3)cc2c(Cl)c[nH]c12` [Example 42, 2-(tert-butyl)-1′-(3-chloro-7-methyl-1H-indole-5-carbonyl)-5H-spiro[benzo[d]thiazole-6,4′-piperidin]-4(7H)-one] has an IC50 [1] of 3.1 nM and an IC50 (SZ95 sebocytes) of 15.9 nM.
Compound `COc1cc(C(=O)N2CCC3(CC2)CC(=O)c2nc(C(C)(C)C)sc2C3)cc2[nH]ccc12` [Example 61] has an IC50 [1] of 4.4 nM and an IC50 (SZ95 sebocytes) of 30.8 nM.
In the case of `Cn1ccc2c(Cl)cc(C(=O)N3CCC4(CC3)CC(=O)c3nc(C(C)(C)C)sc3C4)cc21` [Example 79], the IC50 [1] is reported as 4.1 nM and the IC50 (SZ95 sebocytes) is reported as 16.7 nM.
Compound `COc1cc(C(=O)N2CCC3(CC2)CC(=O)c2nc(C(C)(C)C)sc2C3)cc(OC)c1C` [Example 81] has an IC50 [1] of 11.7 nM and an IC50 (SZ95 sebocytes) of 47.2 nM.
`CNc1nc2c(C)cccc2cc1C(=O)N1CCC2(CC1)CC(=O)c1nc(C(C)(C)C)sc1C2` [Example 97] gave an IC50 [1] of 1.8 nM and an IC50 (SZ95 sebocytes) of 16.2 nM.
`COc1cc(C(=O)N2CCC3(CC2)CC(=O)c2nc(C(C)(C)C)sc2C3)cc2c(C3CC3)nccc12` [Example 99] gave an IC50 [1] of 3.9 nM and an IC50 (SZ95 sebocytes) of 10 nM.
For `CCc1nn(C)c2c(OC)cc(C(=O)N3CCC4(CC3)CC(=O)c3nc(C(C)(C)C)sc3C4)cc12` [Example 108], the IC50 [1] was 5.6 nM.

— patent publication US20240109915A1, “NOVEL ACC INHIBITORS” (Pfizer Inc., priority 2022, published 2024)
